System: Plasmodium berghei
Experiment: Luciferase/luciferin-expressing antifolate-resistant parasites were used to infect a culture of HepG2 cells that were pre-incubated with compounds. Infected hepatocytes emit light due to the luciferase reaction. Assay results are presented as the percent inhibition of light emission compared to control. […]
Type: functional
Conditions: sporozoite; for IC90: read-out: LUCIFERASE INFECTION ASSAY - IC90

SMILES | IC90 [µM] | also measured
Cc1cc(NC(=O)c2cccc(S(=O)(=O)N3c4ccccc4CC3C)c2)no1 (stereo not given) | 1.24 | IC50 (PBLUC_HILL_SLOPE 18.4, PBLUC_R_SQUARED 0.605, read-out: LUCIFERASE INFECTION ASSAY - IC50): 1.1 µM
Clc1ccc(CN=C(Nc2ccccc2)NC2CCCCC2)cc1 | 9.45 | IC50 (PBLUC_HILL_SLOPE 18.9, PBLUC_R_SQUARED 0.472, read-out: LUCIFERASE INFECTION ASSAY - IC50): 8.42 µM
COc1ccc(-c2cnc3cnc(-c4cccc(C(N)=O)c4)cn23)cn1 | 3.91 | IC50 (PBLUC_HILL_SLOPE 17.6, PBLUC_R_SQUARED 0.459, read-out: LUCIFERASE INFECTION ASSAY - IC50): 3.45 µM
Clc1ccc(-c2cnc3cnc(-c4cccs4)cn23)cc1 | 3.99 | IC50 (PBLUC_HILL_SLOPE 17.9, PBLUC_R_SQUARED 0.612, read-out: LUCIFERASE INFECTION ASSAY - IC50): 3.53 µM
COc1cccc(-c2cn3c(-c4cccc(O)c4)cnc3cn2)c1F | 3.69 | IC50 (PBLUC_HILL_SLOPE 18.9, PBLUC_R_SQUARED 0.523, read-out: LUCIFERASE INFECTION ASSAY - IC50): 3.28 µM
Cc1cc(-c2cn3c(-c4ccncc4)cnc3cn2)cc(C)c1O | 10 | IC50 (PBLUC_HILL_SLOPE 18.9, PBLUC_R_SQUARED 0.365, read-out: LUCIFERASE INFECTION ASSAY - IC50): 8.93 µM
N#Cc1ccc(C(=O)C(C#N)c2nc(-c3ccc(F)cc3)cs2)cc1 (stereo not given) | 3.83 | IC50 (PBLUC_HILL_SLOPE 17.7, PBLUC_R_SQUARED 0.0264, read-out: LUCIFERASE INFECTION ASSAY - IC50): 3.38 µM
CC(C)(C)c1ccc(C2Nc3ccccc3C(=O)N2C2CC2)cc1 (stereo not given) | 9.91 | IC50 (PBLUC_HILL_SLOPE 18.7, PBLUC_R_SQUARED 0.174, read-out: LUCIFERASE INFECTION ASSAY - IC50): 8.81 µM
O=C(NC1CC1)c1ccc(CN(Cc2csc(-c3ccsc3)n2)Cc2ccco2)cc1 | 1.57 | IC50 (PBLUC_HILL_SLOPE 18.2, PBLUC_R_SQUARED 0.577, read-out: LUCIFERASE INFECTION ASSAY - IC50): 1.39 µM
COc1cccc(N(C)S(=O)(=O)c2cccc3cc(C)cnc23)n1 | 3.82 | IC50 (PBLUC_HILL_SLOPE 18.8, PBLUC_R_SQUARED 0.316, read-out: LUCIFERASE INFECTION ASSAY - IC50): 3.4 µM
COc1ccc(C2=CS/C(=C(/C#N)c3nnc4n3CCCCC4)N2c2ccccc2)cc1 | > 10 | IC50 (PBLUC_HILL_SLOPE 18.4, PBLUC_R_SQUARED 0.0899, read-out: LUCIFERASE INFECTION ASSAY - IC50): 9.78 µM
CCCNC(=O)c1c(NC(=O)c2cccc(C)c2)nc2ccccn12 | > 9.81 | IC50 (PBLUC_HILL_SLOPE 17.7, PBLUC_R_SQUARED 0.381, read-out: LUCIFERASE INFECTION ASSAY - IC50): 9.1 µM
CCCCNCCCCOc1ccc(C)cc1C(C)(C)C | > 10 | IC50 (PBLUC_HILL_SLOPE 18.2, PBLUC_R_SQUARED 0.163, read-out: LUCIFERASE INFECTION ASSAY - IC50): 8.89 µM
N#CC(C(=O)c1cc(S(=O)(=O)N2CCc3ccccc3C2)ccc1Cl)c1ccccn1 (stereo not given) | 3.76 | IC50 (PBLUC_HILL_SLOPE 17.6, PBLUC_R_SQUARED 0.387, read-out: LUCIFERASE INFECTION ASSAY - IC50): 3.32 µM
Cc1nc2ccccn2c1C(=O)NCc1cccc(OC(F)(F)F)c1 | > 9.45 | IC50 (PBLUC_HILL_SLOPE 18.2, PBLUC_R_SQUARED 0.0314, read-out: LUCIFERASE INFECTION ASSAY - IC50): 8.72 µM
CC(=O)N(C)c1cccc(-c2cc3c(Nc4cccc(C(C)C)c4)nccc3n2C)c1 | 3.76 | IC50 (PBLUC_HILL_SLOPE 18.8, PBLUC_R_SQUARED 0.545, read-out: LUCIFERASE INFECTION ASSAY - IC50): 3.34 µM
O=C(Nc1nn[nH]n1)c1ccc(S(=O)(=O)N2CCCCCC2)cc1 | 9.99 | IC50 (PBLUC_HILL_SLOPE 18.6, PBLUC_R_SQUARED 0.124, read-out: LUCIFERASE INFECTION ASSAY - IC50): 8.88 µM
O=C(NC(c1ccccc1)C1CC1)C1=NN(c2ccccc2)C(=O)CN1 (stereo not given) | 9.85 | IC50 (PBLUC_HILL_SLOPE 18.7, PBLUC_R_SQUARED 0.556, read-out: LUCIFERASE INFECTION ASSAY - IC50): 8.76 µM
CCOc1cccc(-c2cn3c(-c4ccc(C(=O)N5CCN(C)CC5)cc4)cnc3cn2)c1 | 7.28 | IC50 (PBLUC_HILL_SLOPE 18.7, PBLUC_R_SQUARED 0.82, read-out: LUCIFERASE INFECTION ASSAY - IC50): 6.48 µM
CCOc1cc2c(cc1CNC(=O)c1cccc(NC(=O)c3cccs3)c1)OC(C)C2 (stereo not given) | > 10 | IC50 (PBLUC_HILL_SLOPE 17.6, PBLUC_R_SQUARED 0.496, read-out: LUCIFERASE INFECTION ASSAY - IC50): 9.52 µM

SMILES | IC90 [µM] | also measured
Cc1ccc(NS(=O)(=O)c2ccc(NN=CC3C(=O)N(c4cccc(C(F)(F)F)c4)C(=O)c4ccccc43)c([N+](=O)[O-])c2)c(C)c1 (stereo not given) | > 10 | IC50 (PBLUC_HILL_SLOPE 19.2, PBLUC_R_SQUARED 0.393, read-out: LUCIFERASE INFECTION ASSAY - IC50): 9.75 µM
Cc1noc2nc(C3CC3)cc(C(=O)Nc3cccc(C(F)(F)F)c3)c12 | 1.12 | IC50 (PBLUC_HILL_SLOPE 17.7, PBLUC_R_SQUARED 0.604, read-out: LUCIFERASE INFECTION ASSAY - IC50): 0.99 µM
CCOC(=O)C(c1ccc(Cl)cc1)N1CCN(C(=O)/C=C/c2ccc(OC)c(OC)c2)CC1 (stereo not given) | 3.62 | IC50 (PBLUC_HILL_SLOPE 18.4, PBLUC_R_SQUARED 0.744, read-out: LUCIFERASE INFECTION ASSAY - IC50): 3.21 µM
Cn1cc(-c2cnc3cnc(-c4ccccc4Oc4ccccc4)cn23)cn1 | 3.5 | IC50 (PBLUC_HILL_SLOPE 18.2, PBLUC_R_SQUARED 0.499, read-out: LUCIFERASE INFECTION ASSAY - IC50): 3.1 µM
Cc1ccnc2nc(C(=O)Nc3cc(C(F)(F)F)ccc3N3CCCCCC3)nn12 | 0.413 | IC50 (PBLUC_HILL_SLOPE 19, PBLUC_R_SQUARED 0.744, read-out: LUCIFERASE INFECTION ASSAY - IC50): 0.368 µM
Cc1nn(-c2ccccc2)c(C)c1CN(C)S(=O)(=O)c1ccc(C#N)cc1 | 0.36 | IC50 (PBLUC_HILL_SLOPE 18, PBLUC_R_SQUARED 0.548, read-out: LUCIFERASE INFECTION ASSAY - IC50): 0.318 µM
Cc1cnc(NC(=O)C2CCN(S(=O)(=O)c3ccc(Cl)cc3)CC2)s1 | 3.13 | IC50 (PBLUC_HILL_SLOPE 19, PBLUC_R_SQUARED 0.695, read-out: LUCIFERASE INFECTION ASSAY - IC50): 2.79 µM
CC(OC(=O)c1cc2c(s1)-c1ccccc1OC2)C(=O)N1CCNC1=O (stereo not given) | > 10 | IC50 (PBLUC_HILL_SLOPE 18.2, PBLUC_R_SQUARED 0.638, read-out: LUCIFERASE INFECTION ASSAY - IC50): 9.62 µM
CCC(C)c1ccc(-c2cc(C(=O)OCC(=O)c3c(N)n(C)c(=O)n(C)c3=O)c3ccccc3n2)cc1 (stereo not given) | > 10 | IC50 (PBLUC_HILL_SLOPE 18.2, PBLUC_R_SQUARED 0.259, read-out: LUCIFERASE INFECTION ASSAY - IC50): 9.1 µM
O=C(CN1CCN(CC(=O)N(Cc2ccccc2)Cc2ccccc2)CC1)Nc1ccc(Cl)c(C(F)(F)F)c1 | > 10 | IC50 (PBLUC_HILL_SLOPE 18.3, PBLUC_R_SQUARED 0.38, read-out: LUCIFERASE INFECTION ASSAY - IC50): 9.55 µM
Fc1ccc(COc2ccc3ccccc3c2CNCc2ccccn2)cc1 | > 8.86 | IC50 (PBLUC_HILL_SLOPE 18.6, PBLUC_R_SQUARED 0.616, read-out: LUCIFERASE INFECTION ASSAY - IC50): 8.21 µM
C=CCn1c(COc2cc(C)ccc2C(C)C)nnc1SCC(=O)NCC12CC3CC(CC(C3)C1)C2 | > 10 | IC50 (PBLUC_HILL_SLOPE 17.6, PBLUC_R_SQUARED 0.542, read-out: LUCIFERASE INFECTION ASSAY - IC50): 9.43 µM
Cc1nn(Cc2ccccc2Cl)c2sc(C(=O)OC(C)c3nc(=O)c4ccccc4[nH]3)cc12 (stereo not given) | > 10 | IC50 (PBLUC_HILL_SLOPE 18.8, PBLUC_R_SQUARED 0.168, read-out: LUCIFERASE INFECTION ASSAY - IC50): 9.99 µM
O=C(Nc1cccc2c[nH]nc12)c1ccc(Oc2ccccc2)cc1 | > 10 | IC50 (PBLUC_HILL_SLOPE 18.4, PBLUC_R_SQUARED 0.556, read-out: LUCIFERASE INFECTION ASSAY - IC50): 9.05 µM
COc1cc(-c2cnc3cnc(-c4ccccc4Cl)cn23)ccc1O | > 9.38 | IC50 (PBLUC_HILL_SLOPE 17.8, PBLUC_R_SQUARED 0.0398, read-out: LUCIFERASE INFECTION ASSAY - IC50): 8.38 µM
O=C(c1ccc(-n2cnc3ccccc3c2=O)cc1)N1CCN(S(=O)(=O)c2ccc3ccccc3c2)CC1 | > 10 | IC50 (PBLUC_HILL_SLOPE 18.8, PBLUC_R_SQUARED 0.0296, read-out: LUCIFERASE INFECTION ASSAY - IC50): 9.48 µM
Cc1c(S(=O)(=O)c2ccc(Cl)cc2)csc1C(=O)N(c1ccccc1)[S+](C)[O-] (stereo not given) | 2.72 | IC50 (PBLUC_HILL_SLOPE 18.3, PBLUC_R_SQUARED 0.735, read-out: LUCIFERASE INFECTION ASSAY - IC50): 2.41 µM
CS(=O)(=O)c1ccc(-c2cnc(N)c(-c3cccc(O)c3)c2)cc1 | 3.71 | IC50 (PBLUC_HILL_SLOPE 17.6, PBLUC_R_SQUARED 0.332, read-out: LUCIFERASE INFECTION ASSAY - IC50): 3.27 µM
O=C1C=CC(=O)N1c1ccccc1Br | > 13.1 | IC50 (PBLUC_HILL_SLOPE 18.8, PBLUC_R_SQUARED 0.535, read-out: LUCIFERASE INFECTION ASSAY - IC50): 12.7 µM
NC(=O)c1ccc(-c2cc(-c3cccc(F)c3)cnc2N)cc1 | 10.5 | IC50 (PBLUC_HILL_SLOPE 18, PBLUC_R_SQUARED 0.175, read-out: LUCIFERASE INFECTION ASSAY - IC50): 9.29 µM

Reference: ChEMBL document CHEMBL4483862, “Open-source discovery of chemical leads for next-generation chemoprotective antimalarials” (2018)
